Test results published in PubChem BioAssay (NCI).
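Results reflect a 48-hour exposure of cells in 96-well plates to compound at five concentrations. At the TGI there is no net growth.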

Assays:
Test in all cases: NCI tumour cell line growth inhibition, 48 h
CCRF-CEM leukemia = tested on: CCRF-CEM leukemia
SF-268 CNS = tested on: SF-268 CNS
IGROV1 ovarian = tested on: IGROV1 ovarian
SK-MEL-2 melanoma = tested on: SK-MEL-2 melanoma
SN12C renal = tested on: SN12C renal
HS 578T breast = tested on: HS 578T breast
MALME-3M melanoma = tested on: MALME-3M melanoma
HCT-116 colon = tested on: HCT-116 colon
OVCAR-5 ovarian = tested on: OVCAR-5 ovarian
COLO 205 colon = tested on: COLO 205 colon
MCF7 breast = tested on: MCF7 breast
SK-OV-3 ovarian = tested on: SK-OV-3 ovarian
TK-10 renal = tested on: TK-10 renal
SK-MEL-28 melanoma = tested on: SK-MEL-28 melanoma
SNB-75 CNS = tested on: SNB-75 CNS
UO-31 renal = tested on: UO-31 renal
KM12 colon = tested on: KM12 colon
PC-3 prostate = tested on: PC-3 prostate
RPMI-8226 leukemia = tested on: RPMI-8226 leukemia
MDA-MB-231 breast = tested on: MDA-MB-231 breast

CCN(CCCl)c1cc(CN(C)C)cc(NC(=O)c2ccc(C(=O)Nc3cccc(N(CCCl)NN)c3)cc2)c1
TGI (CCRF-CEM leukemia): 115 nM
TGI (SF-268 CNS): 20500 nM
TGI (IGROV1 ovarian): 78 nM
TGI (SK-MEL-2 melanoma): 181 nM
TGI (SN12C renal): 1160 nM
TGI (HS 578T breast): 71.1 nM
TGI (MALME-3M melanoma): 93.9 nM
TGI (HCT-116 colon): 10100 nM
TGI (OVCAR-5 ovarian): 989 nM
TGI (COLO 205 colon): 199 nM
TGI (MCF7 breast): 171 nM
TGI (SK-OV-3 ovarian): 13300 nM
TGI (TK-10 renal): 618 nM
TGI (SK-MEL-28 melanoma): 505 nM
TGI (SNB-75 CNS): 775 nM
TGI (UO-31 renal): 1540 nM
TGI (KM12 colon): 329 nM
TGI (PC-3 prostate): 66.1 nM
TGI (RPMI-8226 leukemia): 31800 nM
TGI (MDA-MB-231 breast): 690 nM
